How the values were obtained:
[1] = target: T1, LmMK (recombinant, bacterially expressed) (Leishmania major, UniProt Q4Q6K7); assay: X-ray crystal structure of complex, […] A (also radioactive kinase assay); type: binding
T1 construct: gene LMJF_31_0560; pET15b (NdeI/XhoI), E. coli BL21(DE3), N-terminal His-tag removed by thrombin; about 329 residues, monomer, about 35 kDa; 3 C-terminal residues disordered
T1 sequence (Q4Q6K7 1-329): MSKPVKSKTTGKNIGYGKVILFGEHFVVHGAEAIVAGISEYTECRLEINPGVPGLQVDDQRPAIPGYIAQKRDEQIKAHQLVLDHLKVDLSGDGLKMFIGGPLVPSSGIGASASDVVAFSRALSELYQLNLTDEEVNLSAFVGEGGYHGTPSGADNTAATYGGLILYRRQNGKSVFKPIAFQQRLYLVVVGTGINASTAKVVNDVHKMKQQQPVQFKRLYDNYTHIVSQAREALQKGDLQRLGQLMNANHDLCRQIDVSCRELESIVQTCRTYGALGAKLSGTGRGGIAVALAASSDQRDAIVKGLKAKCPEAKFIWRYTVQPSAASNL

TbMK (TbMK-HA) = target: T2, TbMK (TbMK-HA) (Trypanosoma brucei, UniProt Q57Y11); type: biochemical; settings: phosphate donor; with 833 uM [3H](R)-MVA, MgCl2 5 uM, pH 7.0, 30 C
T2 construct: gene Tb04.1D20.470

[2] = target: T1, LmMK (recombinant, bacterially expressed); assay: radioactive phosphorylation assay, chromatography, scintillation counting; type: biochemical

T2 sequence (Q57Y11 entry or part of it): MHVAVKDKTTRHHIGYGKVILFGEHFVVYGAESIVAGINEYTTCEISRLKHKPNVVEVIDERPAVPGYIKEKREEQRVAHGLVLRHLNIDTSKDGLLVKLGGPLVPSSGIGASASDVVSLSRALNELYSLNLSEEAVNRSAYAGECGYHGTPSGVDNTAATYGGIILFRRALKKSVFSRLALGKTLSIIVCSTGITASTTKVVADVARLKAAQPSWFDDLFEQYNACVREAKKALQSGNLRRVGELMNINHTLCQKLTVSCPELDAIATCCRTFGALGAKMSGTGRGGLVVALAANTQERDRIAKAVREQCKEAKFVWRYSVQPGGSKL

Structure (SMILES)	X-ray crystal structure of complex, 1.9 A (also radioactive kinase assay) [1]	radioactive phosphorylation assay, chromatography, scintillation counting (TbMK (TbMK-HA))	radioactive phosphorylation assay, chromatography, scintillation counting [2]
C[C@@](O)(CCO)CC(=O)O [(R)-MVA]	The electron density clearly indicated the presence of (R)-MVA in molecule A	–	–
Nc1ncnc2c1ncn2[C@@H]1O[C@H](COP(=O)(O)OP(=O)(O)OP(=O)(O)O)[C@@H](O)[C@H]1O [ATP]	–	an ATP-dependent MK activity in Leishmania and Trypanosoma	Activity of LmMK was observed after incubation of the enzyme with radiolabeled [^3H] (R)-MVA and ATP

Source: PMC1851959, “Structure, substrate recognition and reactivity of Leishmania major mevalonate kinase” (BMC Structural Biology, 2007)
